From paper PMC10896388, “Hybrid Allosteric Modulators of M1 Muscarinic Receptors Enhance Acetylcholine Efficacy and Decrease Locomotor Activity and Turning Behaviors in Zebrafish” (Research Square, 2024)
Entries after “also recorded” stand apart in the source; their conditions may differ. Read-outs that look alike come from different tables or passages of the source.

Columns and labels:
[1] = test system: wild-type (AB) zebrafish (Danio rerio); assay: Maximum tolerated concentration (MTC) determination in zebrafish larvae; type: in vivo; conditions: for MTC (maximum tolerated concentration): 5 dpf zebrafish larvae, after 24-hr exposure
Experimental: Determination of maximum tolerated concentration (adapted from Berghmans)[52] was completed by placing 5 days post fertilization (dpf) wild-type zebrafish larvae in a 24 well plate at 6 fish per well, and one compound concentration per well. […] Death was determined by the absence of heartbeat. Additional endpoints were used to assess toxicity at non-lethal concentrations such as startle capacity (poke stimulus), abnormalities in swimming behavior (loss of dorsoventral balance), and gross morphological deformities (bent body). […] The MTC determination was used to select three doses of each compound (low, medium, high dose) to be used in behavioral assays.

[2] = test system: wild-type (AB) zebrafish (Danio rerio); assay: animal or person; type: in vivo; conditions: for Therap. Index: zebrafish, apparently MTC / MEC
Experimental: The movement of larval zebrafish was monitored with the Noldus behavior recording system (Noldus Information Technology, Leesburg VA) and quantified using EthoVision® XT 15 software (Noldus Information Technology, Leesburg VA). Five-dpf zebrafish larvae were exposed to a range of nonlethal concentrations of compounds in a 24-well plate with appropriate controls. The plate was immediately placed in the incubator for a 30-minute exposure period. After 30 minutes, the plate was transferred to the Noldus system and swimming behavior was recorded in 100% light for 30 minutes to measure spontaneous swimming behavior. The light was switched off for 10 minutes (dark period) and then switched on for 10 minutes (light period), which was then repeated for two additional cycles. In total, the larvae were exposed to three cycles of alternating 10-minute dark and light periods (100% darkness-to-100% light). Each drug challenge was conducted on three separate plates with n = 6 larvae/dose/plate.
Absolute turn angle (TA) and angular velocity provided measures of the extent of turning behavior, while the intra-individual variance of turn angle quantified how consistently (low variance) or inconsistently (high variance) fish turned. A lowered intra-individual variance of turning reflected repeatedly performing the same turning behavior, a stereotypy.[53]
All data for exposure and the behavioral end points were analyzed by one-way ANOVA (factor: drug concentration) followed by a Dunnett’s multiple comparisons test for post hoc significance between drug concentration and control group. Statistically significant differences are noted as follows; *, p < 0.05; **, p < 0.01; ***, p < 0.001.

[3] = biological target: T1, human M1 muscarinic receptors (Homo sapiens, UniProt P11229); assay: [3H]-arachidonic acid release in CHO cells expressing M1 receptors, with and without ACh; type: cell-based; design: expressed in transfected cells; host or cells: CHO cells (stably transfected CHO-hM1, from Mark Brann's laboratory, NIH); conditions: for No ACh: agonist effect of the allosteric ligand by itself, fraction of the maximal response that could be elicited by ACh / 0.1 µM ACh: response with modulator present divided by response to ACh alone / 100 µM ACh: response with modulator present divided by response to ACh alone: modulator 10 µM, mean ± s.e.m.; for No ACh: agonist effect of the allosteric ligand by itself, fraction of the maximal response that could be elicited by ACh: at least 4 determinations
T1 sequence (P11229 1-460): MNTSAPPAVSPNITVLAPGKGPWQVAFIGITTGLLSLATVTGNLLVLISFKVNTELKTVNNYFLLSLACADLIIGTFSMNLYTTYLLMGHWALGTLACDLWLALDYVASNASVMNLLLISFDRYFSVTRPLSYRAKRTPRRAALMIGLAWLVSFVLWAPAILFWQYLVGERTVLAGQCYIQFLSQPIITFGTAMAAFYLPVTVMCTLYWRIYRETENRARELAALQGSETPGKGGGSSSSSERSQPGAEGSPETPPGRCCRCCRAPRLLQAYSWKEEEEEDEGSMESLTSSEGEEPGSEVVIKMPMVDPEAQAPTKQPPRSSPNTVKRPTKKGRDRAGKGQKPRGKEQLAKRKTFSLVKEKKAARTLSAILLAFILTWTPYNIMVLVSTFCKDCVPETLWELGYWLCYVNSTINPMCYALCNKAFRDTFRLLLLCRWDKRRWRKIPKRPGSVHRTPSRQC
Experimental: CHO cells expressing human M1 muscarinic receptors were cultured at 37°C in a 5% CO2 atmosphere in F12 medium supplemented with 5% fetal bovine serum, 100 units/mL penicillin, and 100µg/mL streptomycin. These cells were obtained from Mark Brann’s laboratory when they were at NIH and have been in use by us and others for many years.[49]
Measurement of [^3H]AA release was performed as described in Stahl and Ellis.[24] Stably transfected CHO-hM1 cells were seeded on 24-well plates (Greiner Bio-One GmbH, Frickenhausen, Germany) at a density of 5.0 × 10^4 cells/well in 0.5 ml of F-12 medium. Cells were incubated until they attached (approximately 3 h), followed by the addition of [^3H]AA to a final concentration of 0.05 µCi of [^3H]AA per well. The cells were then grown for 16 to 20 h before the assay was performed. [^3H]AA release was measured in Eagle’s basal medium with 20 mM HEPES and 2 mg/ml fatty acid-free bovine serum albumin (EM-BSA). Cells were rinsed twice with EM-BSA, followed by the addition of EM-BSA media containing experimental agents and incubated for 1 h at 37°C. The assay was terminated by aspiration of the media, and the amount of [^3H]AA released was determined by liquid scintillation counting (Beckman-Coulter LS6500). […]
Tabulated [^3H]AA release data are represented as a fraction of maximal release elicited by ACh or as the fraction of release elicited by the relevant concentration of ACh alone, as indicated. Dose-response curves were normalized to the maximal response of ACh without allosteric ligand. Where indicated, response curves were analyzed using the empirical four-parameter equation: […] where X is the concentration of the ligand used, Y is the amount of response, C50 is the concentration of the ligand that produces 50% of the maximal effect, Top and Bottom are the top and bottom plateaus of the curve, and n is related to the Hill slope for the curve. Where indicated, families of response curves were analyzed according to an allosteric operational model:[50],[51]

[4] = [3H]AA release, CHO-hM1, modulators at 10 µM (amiodarone 30 µM)

SMILES	MTC (maximum tolerated concentration) [1] [µM]	Therap. Index [2]	modulation of ACh response (in words) [3, 4]	further results
CCCCc1oc2ccccc2c1C(=O)c1cc(I)c(OCCN(CC)CC)c(I)c1 [Amiodarone, reference compound]	10			concentration that produced death ([1]; zebrafish larvae): 100 µM
COc1ccc(Cn2cc(C(=O)O)c(=O)c3ccccc32)cc1 [BQCA, reference compound]				effect on locomotor activity and turning behaviors (in words) ([2]; AB zebrafish, 30-minute spontaneous swimming period): decreased overall locomotor activity; modulation of ACh response (in words) [3]: enhanced potency without appreciable effect on maximal response; No ACh: agonist effect of the allosteric ligand by itself, fraction of the maximal response that could be elicited by ACh ([3]; CHO-hM1): 0.02 ± 0.00
CCCCc1oc2ccccc2c1C(=O)c1cc(I)c(OCCNCC)c(I)c1.Cl [Compound 1, (2-butylbenzofuran-3-yl)(4-(2-(ethylamino)ethoxy)-3,5-diiodophenyl)methanone hydrochloride]	3	1	suppressed the maximal ACh response	
CCCCc1oc2ccccc2c1C(=O)c1cc(I)c(OCC[N+](CC)(CC)CC)c(I)c1 [Compound 2, N-ethyl amiodarone, reference compound]	1		NAM of mAChR potency and efficacy	
CCCCc1oc2ccccc2c1C(=O)c1cc(I)c(O)c(I)c1 [Compound 3, reference compound]	3		suppressed the maximal ACh response	
CCCCc1oc2ccccc2c1C(=O)c1ccc(O)cc1 [Compound 4, reference compound]	0.3		suppressed the maximal ACh response	
CCCCc1oc2ccccc2c1C(=O)c1cc(I)c(OCCN(CC)C(C)=O)c(I)c1 [Compound 5a, N-(2-(4-(2-butylbenzofuran-3-carbonyl)-2,6-diiodophenoxy)ethyl)-N-ethylacetamide]	10			intrinsic agonist activity (in words) ([3]; [3H]AA release in the absence of ACh, 10 µM): significant intrinsic agonist activity; increase in mAChR activity compared to treatment with ACh alone ([3]; [3H]AA release, CHO-hM1, predominantly at higher doses of ACh (Table 2, not available)): 70%
CCCCc1oc2ccccc2c1C(=O)c1ccc(OC)cc1 [Compound 6a, (2-butylbenzofuran-3-yl)(4-methoxyphenyl)methanone]	3			
CCCCc1oc2ccccc2c1C(=O)c1cc(I)c(OC)c(I)c1 [Compound 6b, (2-butylbenzofuran-3-yl)(3,5-diiodo-4-methoxyphenyl)methanone]	30		increased ACh activity	
CCCCc1oc2ccccc2c1C(=O)c1ccc(OCCN(CC)CC)cc1 [Compound 6c, (2-butylbenzofuran-3-yl)(4-(2-(diethylamino)ethoxy)phenyl)methanone]	3	30	decreased ACh activity	
COc1ccc(CN2C(=O)C(=O)c3ccccc32)cc1I [Compound 8b, 1-(3-iodo-4-methoxybenzyl)indoline-2,3-dione]	10	10		
COc1ccc(CN2C(=O)C(=O)c3ccccc32)cc1Br [Compound 8d, 1-(3-bromo-4-methoxybenzyl)indoline-2,3-dione]	100	100		
COc1c(Cl)cc(CN2C(=O)C(=O)c3ccccc32)cc1Cl [Compound 8e, 1-(3,5-dichloro-4-methoxybenzyl)indoline-2,3-dione]	100	100		
COc1ccc(CN2C(=O)C(=O)c3ccccc32)cc1Cl [Compound 8f, 1-(3-chloro-4-methoxybenzyl)indoline-2,3-dione]	10	3.3		
COc1c(F)cc(CN2C(=O)C(=O)c3ccccc32)cc1F [Compound 8g, 1-(3,5-difluoro-4-methoxybenzyl)indoline-2,3-dione]	30	30		
COc1ccc(CN2C(=O)C(=O)c3ccccc32)cc1F [Compound 8h, 1-(3-fluoro-4-methoxybenzyl)indoline-2,3-dione]	30	10		
O=C1C(=O)N(Cc2cc(F)c(F)c(F)c2)c2ccccc21 [Compound 8i, 1-(3,4,5-trifluorobenzyl)indoline-2,3-dione]	10	10		
COc1cc(CN2C(=O)C(=O)c3ccccc32)cc(OC)c1OC [Compound 8k, 1-(3,4,5-trimethoxybenzyl)indoline-2,3-dione]	30	30		
CCN(CC)CCOc1c(Br)cc(CN2C(=O)C(=O)c3ccccc32)cc1Br.Cl [Compound 8l, 1-(3,5-dibromo-4-(2-(diethylamino)ethoxy)benzyl)indoline-2,3-dione hydrochloride]	10	1	only decreased ACh activity; also recorded: decreased ACh potency with little impact on ACh efficacy	
O=C1C(=O)N(Cc2ccc(O)cc2)c2ccccc21 [Compound 10, 1-(4-hydroxybenzyl)indoline-2,3-dione]	10	3.3		
CCCCc1oc2ccc(NS(C)(=O)=O)cc2c1C(=O)c1ccc(OCCCN(CCCC)CCCC)cc1 [Dronedarone, reference compound]	10	1		0.1 µM ACh: response with modulator present divided by response to ACh alone ([3]; CHO-hM1): 0.25 ± 0.05; 100 µM ACh: response with modulator present divided by response to ACh alone ([3]; CHO-hM1): 0.75 ± 0.07; No ACh: agonist effect of the allosteric ligand by itself, fraction of the maximal response that could be elicited by ACh ([3]; CHO-hM1): 0.08 ± 0.01
O=C1C(=O)N(Cc2ccc(Br)cc2)c2ccccc21 [VU0119498, reference compound]				0.1 µM ACh: response with modulator present divided by response to ACh alone ([3]; CHO-hM1): 1.28 ± 0.12; 100 µM ACh: response with modulator present divided by response to ACh alone ([3]; CHO-hM1): 1.03 ± 0.05; No ACh: agonist effect of the allosteric ligand by itself, fraction of the maximal response that could be elicited by ACh ([3]; CHO-hM1): 0.06 ± 0.01
